Results from patent publication US20100160295A1, “TREATMENT OF RESTLESS LEG SYNDROME AND SLEEP DISORDERS” (SYNOSIA THERAPEUTICS, priority 2008, published 2010).

Key:
[1] = test system: Subjects with RLS; experiment: Medical Outcomes Study (MOS) Sleep Scale, placebo-controlled study in RLS subjects; format: in vivo, human; details: change from Baseline to EoT; PPS n = 13
Method: (§1) The study multi-centre, randomized, double-blind, parallel-groups, placebo-controlled study with 2 treatment arms, oral HPPD inhibitor (2-(2-nitro-4-trifluoromethylbenzoyl)-1,3-cyclohexanedione) and placebo. Subjects were randomized to either treatment with an HPPD inhibitor or placebo in a 2:1 ratio. The subjects were dosed with 4 mg on day 1, and 2 mg/day on days 2-14. The total duration of treatment with study drug for each subject was 14 consecutive days ending at the day of the final sleep lab assessment (Day 14), with a follow-up examination 29 days after Baseline.
(§2) Efficacy parameters were changes between Baseline and end of treatment in objective measures of Periodic Limb Movements (PLM) and sleep efficiency and in investigator evaluations of severity of RLS symptoms as well as in subject's report on severity of RLS symptoms, sleep disturbances and depressive feelings. Parameters measured included: • Periodic Limb Movement (PLM) Index, defined as the number of PLM events occurring during time-in-bed (PLMI/h TIB) • Periodic Limb Movements during Sleep Index, defined as the number of PLMs per hour of total sleep time (PLMSI/h TST) • PLM arousal index, defined as the number of PLM with arousals per hour of total sleep time (PLMSAI/h TST) • Periodic Limb Movements during wakefulness index, defined as the number of PLMs per hour occurring during wakefulness within time-in-bed (PLMWI/h TIB) • Sleep Efficiency (SE) expressed as the percentage total sleep time (TST) of total time in bed (TIB) • Total Sleep Time (TST) • Total number of arousals per TST • Sleep latency • Restless Legs Scale—6 items (RLS-6) (Kohnen et al, 2004) • IRLS total score change from start of treatment to end • Time to requiring rescue medication (defined as time to dropout due to the need of rescue medication for intolerable RLS symptoms) • Physicians' Global Impression, rated by the Clinical Global Impressions Scale (CGI): severity, change and treatment effect • CGI responders defined as the proportion of subjects who improved “much” or “very much” on CGI item “change”. • Patients' Global Impression (PGI) scale Item 1 (efficacy) • Medical Outcomes Study (MOS) Sleep Scale • Beck Depression Inventory (BDI) • In addition, a patient diary was to be completed between days 8 and 15 • HPPD inhibitor plasma concentrations at Baseline, end of treatment and follow-up • Tyrosine plasma concentration at Baseline, end of treatment and follow-up.
Subjects with RLS received either placebo (7 subjects) or an HPPD inhibitor (13 subjects) given as 4 mg on day 1, then 2 mg per day for days 2-14 of the trial. Various parameters relevant to RLS were monitored during the course of treatment, in particular the quality of their sleep patterns using a standard assessment scale (Medical Outcomes Study (MOS) Sleep Scale). Individuals were asked to complete a standard evaluation of their ‘normal’ sleep experience at the start of the trial (Baseline) and again at the end of treatment (EoT), with the various parameters scored according to the attached document.
The MOS Sleep Scale is a comprehensive subject completed sleep questionnaire consisting of 12 items (Hays and Stewart, 1992; Hays et al., 2005). Each item measures a unique aspect or characteristic of sleep. Overall, the MOS Sleep Scale measures the following:
All items, except for item 2, were transformed in a ‘0-100’ scale.
For the analysis of the MOS sleep scale, the following subscales were determined as means of the involved items (in part, after reversing the ratings in the ‘0-100’ scale, denoted by (R) in the item sequence):
Subjects self-reported the length of time it took for them to fall asleep and the average number of hours of sleep each night. Scores for all other items range from 1 (all of the time) to 6 (none of the time).
The MOS Sleep Scale was completed at Baseline (Visit 2) and final examination (Visit 3).

[2] = test system: moderate to severe idiopathic RLS subjects; experiment: IRLS scale, placebo-controlled study in RLS subjects; format: in vivo, human
Method: as §1
(§3) The objective of this exploratory study was to show proof-of-concept of therapy with an exemplary HPPD inhibitor in moderate to severe idiopathic RLS subjects.
as §2

[3] = test system: moderate to severe idiopathic RLS subjects; experiment: Restless Legs Scale - 6 items (RLS-6); format: in vivo, human
Method: as §1, §3
(§4) Efficacy parameters were changes between Baseline and end of treatment in objective measures of Periodic Limb Movements (PLM) and sleep efficiency and in investigator evaluations of severity of RLS symptoms as well as in subject's report on severity of RLS symptoms, sleep disturbances and depressive feelings. […]

[4] = test system: moderate to severe idiopathic RLS subjects; experiment: Beck Depression Inventory (BDI); format: in vivo, human
Method: as §1, §3, §4

[5] = test system: moderate to severe idiopathic RLS subjects; experiment: Clinical Global Impressions Scale (CGI): severity, change and treatment effect; format: in vivo, human
Method: as §1, §3, §2

[6] = test system: moderate to severe idiopathic RLS subjects; experiment: Patients' Global Impression (PGI) scale Item 1 (efficacy); format: in vivo, human
Method: as §1, §3, §4

[7] = test system: moderate to severe idiopathic RLS subjects; experiment: Patient diary of RLS symptoms; format: in vivo, human
Method: as §1, §3, §2

[8] = test system: moderate to severe idiopathic RLS subjects; experiment: PSG measurements, Periodic Limb Movement (PLM) index; format: in vivo, human; details: log-transformed values on PSG measurements
Method: as §1, §3, §4

[9] = Plasma level of HPPD inhibitor and plasma tyrosine at steady state, 2 mg QD vs. 2 mg Q2D (FIG. 3); format: in vivo
Method: FIG. 3 is a graphical comparison of the mean plasma level of an exemplary HPPD inhibitor with plasma tyrosine at steady state following 2 mg QD vs. 2 mg Q2D dosing.
FIG. 3 provides an example of plasma tyrosine levels which are essentially identical and independent of whether the HPPD inhibitor is administered once a day or once every two days.

Compound: O=C1CCCC(=O)C1C(=O)c1ccc(C(F)(F)F)cc1[N+](=O)[O-] [HPPD Inhibitor, 2-(2-nitro-4-trifluoromethylbenzoyl)-1,3-cyclohexanedione]
- MOS Sleep Disturbance Scale, change, Median [1]: −46.3
- MOS Sleep Disturbance Scale, change, Range [1]: −68.8-11.3
- MOS Sleep Problems Index I, change, M ± SD [1]: −23.8 ± 20.3
- MOS Sleep Problems Index I, change, Median [1]: −20.0
- MOS Sleep Problems Index I, change, Range [1]: −60.0-3.3
- MOS Sleep Problems Index II, change, M ± SD [1]: −25.5 ± 19.9
- MOS Sleep Problems Index II, change, Median [1]: −23.9
- MOS Sleep Problems Index II, change, Range [1]: −61.7-−1.7
- MOS Sleep Quantity, change, M ± SD [1]: 1.8 ± 1.1 h
- MOS Sleep Quantity, change, Median [1]: 2.0 h
- MOS Sleep Quantity, change, Range [1]: 0.0 to 3.0 h
- MOS Snoring Scale, change, M ± SD [1]: −6.2 ± 15.0
- MOS Snoring Scale, change, Median [1]: 0.0
- MOS Snoring Scale, change, Range [1]: −40.0-20.0
- MOS Somnolence Scale, change, M ± SD [1]: −10.3 ± 16.0
- MOS Somnolence Scale, change, Median [1]: −13.3
- MOS Somnolence Scale, change, Range [1]: −33.3-13.3
- IRLS severity score: difference drug-placebo, LS mean ([2]; Baseline to EoT, M-ITT, 95%-CI: −9.75, 2.84, p=0.2636): −3.46
- IRLS total score, difference vs placebo ([2]; Baseline to EoT, not seen for IRLS impact score): numerical differences between Baseline and EoT favouring
- subjects reporting only mild or moderate RLS symptoms (IRLS scale), number ([2]; EoT, M-ITT, placebo 2): 9 subjects
- subjects reporting only mild or moderate RLS symptoms (IRLS scale), percentage ([2]; EoT, M-ITT, placebo 28.6%): 64.3%
- RLS-6, all subscales: median (mean) differences between Baseline and EoT vs placebo ([3]; Baseline to EoT): more benefit than those treated with placebo
- RLS-6 RLS symptoms during the night: difference drug-placebo, LS mean ([3]; M-ITT, 95%-CI: −4.52, 0.97, p=0.1910 two-sided from ANCOVA): −1.77
- RLS-6 RLS symptoms when falling asleep: difference drug-placebo, LS mean ([3]; M-ITT, 95%-CI: −5.24, −0.01, p=0.0494 two-sided from ANCOVA): −2.62
- depressive symptoms, mean differences between Baseline and EoT vs placebo [4]: larger reduction of depressive symptoms
- CGI severity item, improvement vs placebo ([5]; EoT): larger improvement
- CGI severity: subjects not at all or only borderline ill, percentage ([5]; EoT, M-ITT): 21.4%
- CGI severity: subjects not at all or only borderline ill, number ([5]; EoT, M-ITT, none on placebo): 3 subjects
- CGI severity: subjects with moderate to severe illness, number ([5]; EoT, M-ITT, placebo 5): 7 subjects
- CGI severity: subjects with moderate to severe illness, percentage ([5]; EoT, M-ITT, placebo 71.4%): 50.0%
- CGI change of condition: subjects very much or much improved (responder analysis), number ([5]; M-ITT, placebo 2): 7 subjects
- CGI change of condition: subjects very much or much improved (responder analysis), percentage ([5]; M-ITT, placebo 28.6%): 50.0%
- CGI treatment effect rated as very good or moderate, number of subjects ([5]; placebo 3): 8 subjects
- CGI treatment effect rated as very good or moderate, percentage of subjects ([5]; placebo 42.9%): 57.1%
- PGI: subjects who assessed their therapy as efficacious, number ([6]; placebo 2): 7 subjects
- PGI: subjects who assessed their therapy as efficacious, percentage ([6]; placebo 28.6%): 50.0%
- patient diary, RLS symptoms during the day when active: difference drug-placebo, LS mean ([7]; M-ITT, 95%-CI: −2.52, −0.04, p=0.0437 two-sided from ANCOVA): −1.28
- patient diary, RLS symptoms during the day: difference drug-placebo, LS mean ([7]; M-ITT, 95%-CI: −4.87, −0.27, p=0.0304 two-sided from ANCOVA): −2.57
- patient diary, RLS symptoms when falling asleep: difference drug-placebo, LS mean ([7]; M-ITT, 95%-CI: −5.15, −0.13, p=0.0402 two-sided from ANCOVA): −2.64
- patient diary, improvement of RLS symptoms during the night and during the day at rest, or during inactivity ([7]; vs placebo): Trends were found
- PLM index values, improvement as compared to placebo [8]: slightly larger improvement
- steady state plasma tyrosine levels, once a day vs once in two days ([9]; 2 mg once a day vs 2 mg once in 2 days): substantially similar
- plasma levels of the HPPD inhibitor, once in two day regimen vs once a day ([9]; 2 mg once in 2 days vs 2 mg once a day, steady state): lower
